The source of these data is PubChem BioAssay (NCI).

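1) Cells in 96-well plates. 2) Compound, 48 h, 5 concentrations. 3) Linear interpolation between surrounding doses. 4) Unreached endpoint = highest concentration. GI50 is the concentration that inhibits growth by half. TGI: total growth inhibition.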

Test systems include MOLT-4 leukemia; NCI-H460 lung; NCI-H23 lung; IGROV1 ovarian; OVCAR-4 ovarian; EKVX NSCLC; SK-MEL-28 melanoma; 786-0 renal; MCF7 breast.
What all share (experiment): growth of human tumour cells (NCI), 48 h

`C#C[C@H]1CCCCCC1O` (stereo not given in full): the TGI in the assay with MOLT-4 leukemia, in the assay with NCI-H460 lung, in the assay with NCI-H23 lung, in the assay on IGROV1 ovarian, in the assay on OVCAR-4 ovarian and in the assay on EKVX NSCLC was more than 100 µM each time. In addition, the TGI with SK-MEL-28 melanoma and in the assay with 786-0 renal was more than 100 µM each time.
In the case of `CC(=O)Nc1ccc(C(=O)NN2C(=O)C(Cl)C2c2ccc(O)cc2)cc1` (stereo not given), the TGI with MOLT-4 leukemia, with NCI-H460 lung, with IGROV1 ovarian, in the assay on OVCAR-4 ovarian, with EKVX NSCLC and in the assay with SK-MEL-28 melanoma was more than 100 µM each time. Further, in the assay on 786-0 renal, the TGI is more than 100 µM.
On to `COC1(C)C(=O)N2C1N(C(=O)OCc1ccccc1)CC2(C)C` (stereo not given), for which the TGI in the assay with MOLT-4 leukemia, with NCI-H460 lung, in the assay on NCI-H23 lung, with IGROV1 ovarian, in the assay on OVCAR-4 ovarian and in the assay with EKVX NSCLC was more than 100 µM in each case. Further, the TGI in the assay with SK-MEL-28 melanoma and with 786-0 renal was more than 100 µM each time.
In the case of `COc1ccc(-c2onc(-c3c(C)cc(C)cc3C)c2C2=NCCN2)cc1`, the TGI in the assay with MOLT-4 leukemia, with NCI-H460 lung, with NCI-H23 lung, with IGROV1 ovarian, in the assay on OVCAR-4 ovarian and with EKVX NSCLC was more than 100 µM each time. In addition, the results for the TGI in the assay on SK-MEL-28 melanoma and in the assay on 786-0 renal were 48.2 µM and more than 100 µM, respectively.
As to `Cc1ccc(Sc2oc(-c3ccc(C)cc3)nc2[P+](c2ccccc2)(c2ccccc2)c2ccccc2)cc1`, the GI50 with MOLT-4 leukemia was 0.319 µM; in the assay on NCI-H460 lung it was 0.312 µM; in the assay with NCI-H23 lung, 0.298 µM; with MCF7 breast it was 0.286 µM; in the assay on OVCAR-4 ovarian it was 0.28 µM; in the assay on EKVX NSCLC, 0.296 µM. The GI50 with SK-MEL-28 melanoma was 0.595 µM; in the assay on 786-0 renal it was 0.379 µM. Besides, the TGI in the assay with MOLT-4 leukemia came to 1.11 µM; with NCI-H460 lung it was 1.12 µM; in the assay on NCI-H23 lung it was 1.02 µM; in the assay on MCF7 breast, 1.09 µM; with OVCAR-4 ovarian, 1.43 µM; in the assay with EKVX NSCLC it was 1.26 µM. The TGI in the assay on SK-MEL-28 melanoma worked out at 1.87 µM; in the assay with 786-0 renal it was 1.65 µM.
`CC(=O)NNc1nc(C)c(C(=O)/C=C/c2ccc(/C=C/C(=O)c3sc(NNC(C)=O)nc3C)cc2)s1`: the TGI in the assay on MOLT-4 leukemia, in the assay on NCI-H460 lung, with NCI-H23 lung, with IGROV1 ovarian, in the assay with OVCAR-4 ovarian and in the assay with EKVX NSCLC was more than 100 µM in each case. The TGI with SK-MEL-28 melanoma and in the assay with 786-0 renal was more than 100 µM throughout.
In the case of `O=C(COc1ccc(Cl)cc1)N1CCN(C(=O)COc2ccc(Cl)cc2)c2ccccc21`, the TGI with MOLT-4 leukemia, in the assay on NCI-H460 lung, in the assay on NCI-H23 lung, in the assay with IGROV1 ovarian, in the assay with EKVX NSCLC and in the assay on SK-MEL-28 melanoma was more than 100 µM in each case. Also, the TGI in the assay on 786-0 renal was more than 100 µM.
As for `Nc1ccc(C(=O)NN2C(=O)C(Cl)C2c2cccc(O)c2)cc1` (stereo not given), the TGI with MOLT-4 leukemia came out at 41.1 µM; in the assay on NCI-H460 lung, 29.7 µM; in the assay with NCI-H23 lung it was 33.2 µM; in the assay on IGROV1 ovarian it was 28.6 µM; in the assay with OVCAR-4 ovarian, 34 µM; with EKVX NSCLC it was 46.6 µM. The TGI in the assay on SK-MEL-28 melanoma stood at 31.9 µM; with 786-0 renal, 29.5 µM.
Regarding `O=C(CCc1nc(=S)[nH][nH]1)Nc1cccc(C(F)(F)F)c1`, the TGI with MOLT-4 leukemia, in the assay on NCI-H460 lung, in the assay with NCI-H23 lung, in the assay with IGROV1 ovarian, in the assay on OVCAR-4 ovarian and in the assay with EKVX NSCLC was more than 100 µM in each case. In addition, the TGI in the assay on SK-MEL-28 melanoma and in the assay with 786-0 renal was more than 100 µM in each case.
For the molecule `CCC[CH2][Sn]([CH2]CCC)([O]C(=O)/C=C/c1ccccc1F)[O]C(=O)/C=C/c1ccccc1F`, the GI50 with MOLT-4 leukemia is 0.267 µM; with NCI-H460 lung, 1.64 µM; in the assay on NCI-H23 lung, 0.198 µM; in the assay with IGROV1 ovarian, 0.585 µM; in the assay on OVCAR-4 ovarian, 1.45 µM; in the assay on EKVX NSCLC, 1.43 µM. Moreover, the GI50 was 0.328 µM in the assay on SK-MEL-28 melanoma and 0.384 µM in the assay on 786-0 renal. Further, the TGI in the assay with MOLT-4 leukemia worked out at 1.71 µM; in the assay on NCI-H460 lung, 3.37 µM; with NCI-H23 lung, 0.56 µM; in the assay on IGROV1 ovarian, 1.66 µM; with OVCAR-4 ovarian it was 2.9 µM; in the assay with EKVX NSCLC, 2.79 µM. For the same molecule, the figures for the TGI in the assay with SK-MEL-28 melanoma and with 786-0 renal were 1.29 µM and 1.17 µM, respectively.
Regarding `CCCCCCCCCCCCCP(=O)(NCC(N)=O)OCC` (stereo not given), the TGI turned out to be 39.8 µM in the assay on NCI-H460 lung; 44 µM in the assay with NCI-H23 lung; 39.4 µM with IGROV1 ovarian; 32.2 µM with OVCAR-4 ovarian; 41 µM with EKVX NSCLC; 32.3 µM in the assay with SK-MEL-28 melanoma. This molecule registered a TGI in the assay on 786-0 renal of 29 µM.
With `Cc1nc2c(sc(=S)n2-c2ccccc2)c2nc3ccccc3n12`, the TGI in the assay with MOLT-4 leukemia, with NCI-H23 lung, in the assay on IGROV1 ovarian, in the assay on OVCAR-4 ovarian, in the assay with EKVX NSCLC and in the assay with SK-MEL-28 melanoma was more than 100 µM each time. The TGI in the assay on 786-0 renal is more than 100 µM.
With `O=C(NCC(=O)N1CCOC1=O)OCc1ccccc1`, the TGI in the assay on MOLT-4 leukemia, with NCI-H460 lung, in the assay on NCI-H23 lung, in the assay on IGROV1 ovarian, with OVCAR-4 ovarian and in the assay on EKVX NSCLC was more than 100 µM in each case. For the same molecule, the TGI in the assay on SK-MEL-28 melanoma and in the assay on 786-0 renal was more than 100 µM in each case.
`Cc1ccc(NC(=O)CC2SC(N)=NC2=O)cc1C` (stereo not given): the TGI in the assay on MOLT-4 leukemia, in the assay with NCI-H460 lung, with NCI-H23 lung, in the assay with IGROV1 ovarian, with OVCAR-4 ovarian and in the assay with SK-MEL-28 melanoma was more than 100 µM in each case. Also, the TGI in the assay on 786-0 renal was more than 100 µM.
On to `Nc1ccc(C(=O)N/C(=C\c2cccc([N+](=O)[O-])c2)c2nc3ccc(Cl)cc3[nH]2)cc1`, for which the TGI in the assay with MOLT-4 leukemia, in the assay on NCI-H23 lung, in the assay with IGROV1 ovarian, in the assay with OVCAR-4 ovarian, in the assay with EKVX NSCLC and in the assay on SK-MEL-28 melanoma was more than 100 µM each time. In the assay on 786-0 renal, this molecule had a TGI of more than 100 µM.
